Patent US20060270643A1, “Hyfroxyflutamide induced pathways related to androgen receptor negative prostate cancer cells” (priority 2002, published 2006)

Tests used:
[1] = system: MAP kinase in CWR22 cells; experiment: Immunoblot of phospho-ERK1/2 in CWR22 cells; assay type: cell-based, human; conditions: 15 mins
[2] = system: MAP kinase in LNCaP cells; experiment: Immunoblot of phospho-ERK1/2 in LNCaP cells; assay type: cell-based, human; conditions: LNCaP cells (data not shown)
AR = biological target: T1, AR (Homo sapiens, UniProt P10275); experiment: AR/DHT mediated PSA transcriptional activity (luciferase reporter) in DU145 cells; assay type: cell-based; conditions: 1 μM of HF, 1 nM DHT, DU145 cells cotransfected with AR
T1 sequence (P10275 1-920): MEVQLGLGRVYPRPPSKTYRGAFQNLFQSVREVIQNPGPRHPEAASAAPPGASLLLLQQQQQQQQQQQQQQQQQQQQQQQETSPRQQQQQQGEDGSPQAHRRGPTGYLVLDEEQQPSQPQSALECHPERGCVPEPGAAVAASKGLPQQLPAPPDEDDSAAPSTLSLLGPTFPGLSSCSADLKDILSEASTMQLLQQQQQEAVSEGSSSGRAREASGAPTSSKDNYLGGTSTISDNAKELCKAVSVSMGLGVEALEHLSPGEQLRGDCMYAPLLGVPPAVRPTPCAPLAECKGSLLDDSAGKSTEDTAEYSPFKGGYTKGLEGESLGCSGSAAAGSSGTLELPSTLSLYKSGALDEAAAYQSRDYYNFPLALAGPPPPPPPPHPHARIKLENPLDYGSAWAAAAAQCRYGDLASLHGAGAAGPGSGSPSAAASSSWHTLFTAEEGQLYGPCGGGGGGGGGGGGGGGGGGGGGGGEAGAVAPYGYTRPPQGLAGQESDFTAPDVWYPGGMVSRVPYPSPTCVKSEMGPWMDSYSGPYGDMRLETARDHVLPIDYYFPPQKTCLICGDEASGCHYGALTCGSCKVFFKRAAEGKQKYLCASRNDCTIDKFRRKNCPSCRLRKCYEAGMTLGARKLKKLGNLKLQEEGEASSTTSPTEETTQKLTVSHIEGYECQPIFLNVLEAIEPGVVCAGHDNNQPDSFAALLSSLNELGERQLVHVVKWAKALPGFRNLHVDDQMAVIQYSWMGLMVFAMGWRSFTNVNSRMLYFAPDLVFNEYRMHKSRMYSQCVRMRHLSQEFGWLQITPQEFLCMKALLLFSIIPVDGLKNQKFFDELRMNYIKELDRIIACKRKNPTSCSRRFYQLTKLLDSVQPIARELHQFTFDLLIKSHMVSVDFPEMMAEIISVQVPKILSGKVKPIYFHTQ

cyclin D1 = experiment: Western blot of cyclin D1 and cell cycle related gene products in DU145 cells; assay type: cell-based, human
Protocol: (§1) 11. […] (A) DU145 cells were treated with HF (1 μM), or EGF (10 ng/ml), or ethanol vehicle for 12 hours after the serum starvation. Cells were lysed and blotted with anti-cyclin D1 antibody. (B) DU145 cells were serum starved for 24 hours and then co-transfected DN Ras or DN Raf together with […] Luc reporter with SuperFect (Qiagen). After 4 hours, the medium was changed to normal medium (10% serum) for 18 hours and then changed to serum starvation condition for another 24 hours and then treated with HF, EGF, or ethanol vehicle control. Cells were lysed for luciferase activity analysis.

[3] = system: cyclin D1 promoter (−1745D1-Luc); experiment: Cyclin D1 promoter luciferase reporter assay in DU145 cells; assay type: cell-based, human; conditions: 10^−6 M HF or 30 ng/ml EGF
Protocol: as §1
197. DU145 cells were obtained from American Type Culture Collection and cultured in Dubecco's modified Eagles's medium (DMEM) supplemented with 10% fetal bovine serum (FBS). Cells (1×10^5) were seeded in 35 mm plates and transfected with the SuperFect transfection reagent (Qiagen, Chatworth, Calif.). After 4 hours the media were changed to serum-free DMEM media for 24 hours. Thereafter, the cells were treated with HF, EGF, and vehicle for 18 hours and then lysed for luciferase assay. Luciferase activity was normalized for taansfection efficiency using pRL-TK as an internal control. Luciferase assays were performed using dual-luciferase reporter system (Promega, Madison, Wis.).

Q: CC(C)(O)C(=O)Nc1ccc([N+](=O)[O-])c(C(F)(F)F)c1 [HF, hydroxyflutamide] was tested. Which MAP kinase activation [1] did it give?
A: activates MAP kinase

Q: What about the MAP kinase activation [2] of the same compound?
A: not

Q: And the “DHT induced PSA-Luc activity” value (AR)?
A: represses DHT induced PSA-Luc activity

Q: What about the “cyclin D1 expression” value (cyclin D1; HF (1 μM) or EGF (10 ng/ml) for 12 hours after serum starvation) of the same compound?
A: induced

Q: What about the “other cell cycle related gene products (p27, p21, Ki67, PCNA)” value (cyclin D1; after HF- or EGF-treatment) of the same compound?
A: no significant change

Q: And the “induction of cyclin D1 promoter (−1745D1-Luc) activity” value [3]?
A: about 2 fold
